Results reported in PubChem BioAssay (NCI).
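Growth conditions: 96-well plates. Treatment: test compound, 48 hours, 5 concentrations. Analysis: linear interpolation between bracketing concentrations; unreached endpoints set to highest concentration. GI50: concentration for 50% inhibition of growth. The concentration for full growth arrest is given as TGI.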

Assays:
Assay in all cases: NCI anticancer screen, dose series, 48 h
NCI-H23 lung = test system: NCI-H23 lung
IGROV1 ovarian = test system: IGROV1 ovarian
HL-60(TB) leukemia = test system: HL-60(TB) leukemia
RPMI-8226 leukemia = test system: RPMI-8226 leukemia
SW-620 colon = test system: SW-620 colon
A549 NSCLC = test system: A549 NSCLC
HOP-92 NSCLC = test system: HOP-92 NSCLC
SF-268 CNS = test system: SF-268 CNS
HCT-15 colon = test system: HCT-15 colon
UO-31 renal = test system: UO-31 renal

SMILES	GI50 (NCI-H23 lung) [nM]	TGI (NCI-H23 lung) [nM]	GI50 (IGROV1 ovarian) [nM]	TGI (IGROV1 ovarian) [nM]	GI50 (HL-60(TB) leukemia) [nM]	TGI (HL-60(TB) leukemia) [nM]	GI50 (RPMI-8226 leukemia) [nM]	TGI (RPMI-8226 leukemia) [nM]	GI50 (SW-620 colon) [nM]	TGI (SW-620 colon) [nM]	GI50 (A549 NSCLC) [nM]	TGI (A549 NSCLC) [nM]	GI50 (HOP-92 NSCLC) [nM]	TGI (HOP-92 NSCLC) [nM]	GI50 (SF-268 CNS) [nM]	TGI (SF-268 CNS) [nM]	GI50 (HCT-15 colon) [nM]	TGI (HCT-15 colon) [nM]	GI50 (UO-31 renal) [nM]	TGI (UO-31 renal) [nM]
C=C(C)[C@@H]1CC[C@]2(CN)CC[C@]3(C)[C@H](CC[C@@H]4[C@@]5(C)CCC(N)[C@@](C)(CO)[C@@H]5CC[C@]43C)[C@@H]12 (stereo not given in full)	1960	3610	1920	3650	1290	2970	1770	3940	1800	3620	1730	3270	1420	2810	1750	3450	1650	3240	1600	2960
CN1CCN(Cc2ccc(NC(=O)c3cccc(C#Cc4c(N)ncc5ccc(F)cc45)c3)cc2C(F)(F)F)CC1	865	1670	597	1400	626	1880	1030	2590	645	1390	877	1770	349	1300	719	1580	621	1410	533	1270
CC(C)Cc1ccc(C(C)/C=C2\CCC(CN3CCCCC3)C2=O)cc1 (stereo not given)		20800		9050		5000		6650		13400		39900		30400		8290		7290		23700
CC(C)(C)C1CCC(=O)C(C(O)CC2CC(=O)N(c3ccccc3)C(=O)C2)C1 (stereo not given)		> 100000		> 100000		> 100000		> 100000		> 100000		> 100000		> 100000		> 100000		> 100000		> 100000
